Assay results published in patent US11339160B2, “Imidazole and triazole containing bicyclic compounds as JAK inhibitors” (THERAVANCE BIOPHARMA R&D IP, LLC, priority 2019, dated 2022).

What follows are compounds tested on IL-2 stimulated STAT5 phosphorylation in CD4+ T cells isolated from murine splenocytes (assay: Inhibition of IL-2 stimulated pSTAT5 in CD4+ T cells isolated from murine splenocytes). Conditions: Mus musculus, IL-2 7 ng/ml, read-out: pIC50, inhibition of IL-2 stimulated pSTAT5 (converted).
Type: cell-based
Description: Assay 3: Inhibition of IL-2 Stimulated pSTAT5 in CD4+ T Cells Isolated from Murine Splenocytes
The potency of test compounds for inhibition of interleukin-2 (IL-2) stimulated STAT5 phosphorylation was measured in the CD4+ T cells isolated from murine splenocytes using AlphaLisa. Because IL-2 signals through JAK3, this assay provides a measure of JAK3 cellular potency in mouse.
Phosphorylated STAT5 was measured via the AlphaLISA SureFire Ultra pSTAT5 (Tyr694/699) kit (PerkinElmer).
CD4+ T cells were isolated from murine splenocytes via negative selection on a magnetic column (Miltnyi Biotec) and re-suspended in assay media (phenol red-free DMEM (Life Technologies) supplemented with 10% FBS (ATCC)). Cells were seeded at 50,000 cells/well in assay media (2 μL/well). Compounds were serially diluted in DMSO and diluted to 2× final concentration in assay media. Compound was added (4 μl/well) and the cells incubated at 37° C., 5% CO2 for 1 hour, followed by the addition of IL-2 (R&D Systems; final concentration 7 ng/ml) in pre-warmed assay media (2 μL) for 30 minutes. After cytokine stimulation, cells were lysed with 2 μl of 5× AlphaLisa Lysis Buffer (PerkinElmer). The lysate was shaken at 900 rpm for 10 minutes at room temperature (RT). Phosphorylated STAT5 was measured via the pSTAT5 AlphaLisa kit (PerkinElmer). Freshly prepared acceptor bead mixture was dispensed onto lysate (5 ul) under green filtered <100 lux light. Plates were shaken at 900 rpm for 2 mins, briefly spun down, and incubated for 2 hrs at RT in the dark. Donor beads were dispensed (5 μl) under green filtered <100 lux light. Plates were shaken at 900 rpm for 2 mins, briefly spun down, and incubated overnight at RT in the dark. Luminescence was measured with excitation at 689 nm and emission at 570 nm using an EnVision plate reader (PerkinElmer) under green filtered <100 lux light.
To determine the inhibitory potency of test compounds in response to IL-2, the average emission intensity of beads bound to pSTAT5 was measured in primary CD4+ T cells isolated from murine splenocytes. IC50 values were determined from analysis of the inhibition curves of signal intensity vs compound concentration. Data are expressed as pIC50 (negative decadic logarithm IC50) values (mean standard deviation).

Compound | IC50
C=CC(=O)N1CC(COc2cc(-c3ccc(O)c(F)c3)cn3cncc23)C1 [Example 20] | < 1000 nM

These compounds were tested against JAK3 (Homo sapiens (Human), UniProt P52333) (assay: Biochemical JAK3 kinase assay (LanthaScreen)). Conditions: selectivity, difference of pKi values.
Description: Assay 1: Biochemical JAK and Tyk2 Kinase Assays
A panel of four LanthaScreen JAK biochemical assays (JAK1, 2, 3 and Tyk2) were carried in a common kinase reaction buffer (50 mM HEPES, pH 7.5, 0.01% Brij-35, 10 mM MgCl2, and 1 mM EGTA). Recombinant GST-tagged JAK enzymes and a GFP-tagged STAT1 peptide substrate were obtained from Life Technologies.
Serially or discretely diluted compounds were pre-incubated with each of the four JAK enzymes and the substrate in white 384-well microplates (Corning) at ambient temperature for 1 h. ATP was subsequently added to initiate the kinase reactions in 10 μL total volume, with 1% DMSO. […] Kinase reactions were allowed to proceed for 1 hour at ambient temperature before a 10 μL preparation of EDTA (10 mM final concentration) and Tb-anti-pSTAT1 (pTyr701) antibody (Life Technologies, 2 nM final concentration) in TR-FRET dilution buffer (Life Technologies) was added. The plates were allowed to incubate at ambient temperature for 1 h before being read on the EnVision reader (Perkin Elmer). Emission ratio signals (520 nm/495 nm) were recorded and utilized to calculate the percent inhibition values based on DMSO and background controls.
For dose-response analysis, percent inhibition data were plotted vs. compound concentrations, and IC50 values were determined from a 4-parameter robust fit model with the Prism software (GraphPad Software). Results were expressed as pIC50 (negative logarithm of IC50) and subsequently converted to pKi (negative logarithm of dissociation constant, Ki) using the Cheng-Prusoff equation.

Sequence of JAK3 (P52333 whole entry): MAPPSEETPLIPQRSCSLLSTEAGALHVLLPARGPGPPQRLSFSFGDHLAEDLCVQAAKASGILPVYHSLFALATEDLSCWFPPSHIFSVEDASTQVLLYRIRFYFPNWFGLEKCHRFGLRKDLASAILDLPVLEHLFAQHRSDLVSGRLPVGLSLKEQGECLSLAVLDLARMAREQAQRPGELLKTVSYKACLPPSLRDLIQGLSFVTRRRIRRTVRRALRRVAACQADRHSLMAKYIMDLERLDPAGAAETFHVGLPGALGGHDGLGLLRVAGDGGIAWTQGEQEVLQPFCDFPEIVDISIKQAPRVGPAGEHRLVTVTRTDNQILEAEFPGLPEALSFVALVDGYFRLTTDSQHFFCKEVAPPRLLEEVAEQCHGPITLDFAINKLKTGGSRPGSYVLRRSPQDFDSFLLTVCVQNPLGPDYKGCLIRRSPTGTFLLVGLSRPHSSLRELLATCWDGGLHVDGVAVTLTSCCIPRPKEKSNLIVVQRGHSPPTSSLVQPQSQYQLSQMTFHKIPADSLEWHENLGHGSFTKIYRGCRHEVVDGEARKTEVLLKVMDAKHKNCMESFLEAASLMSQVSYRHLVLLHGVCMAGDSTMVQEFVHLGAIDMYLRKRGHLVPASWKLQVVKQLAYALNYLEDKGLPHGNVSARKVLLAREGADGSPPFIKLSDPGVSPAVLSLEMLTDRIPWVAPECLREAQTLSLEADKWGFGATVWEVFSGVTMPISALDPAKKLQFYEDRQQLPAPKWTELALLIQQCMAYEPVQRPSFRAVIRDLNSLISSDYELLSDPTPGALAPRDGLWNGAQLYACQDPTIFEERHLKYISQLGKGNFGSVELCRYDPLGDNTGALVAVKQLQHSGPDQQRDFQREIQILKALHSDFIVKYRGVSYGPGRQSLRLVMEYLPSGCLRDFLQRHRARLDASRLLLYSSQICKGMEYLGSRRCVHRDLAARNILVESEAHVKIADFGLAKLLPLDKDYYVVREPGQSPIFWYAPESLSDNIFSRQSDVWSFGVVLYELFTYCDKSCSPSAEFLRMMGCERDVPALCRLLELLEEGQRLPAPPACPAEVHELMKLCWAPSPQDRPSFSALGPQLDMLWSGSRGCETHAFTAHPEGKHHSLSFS

Compound | JAK3 (pKi)-JAK1 (pKi)
CN(C)C/C=C/C(=O)N1CC(COc2cc(-c3ccc(O)cc3)cn3cncc23)C1 [Example 19] | A (a value of 3 or above)
C=CC(=O)N1CC(COc2cc(-c3cc(C)c(O)c(C)c3)cn3cncc23)C1 [Example 35] | A (a value of 3 or above)
C=CC(=O)N1CC2(CCC2Oc2cc(-c3cc(F)c(O)cc3CC)cn3cncc23)C1 (stereo not shown) [Example 46] | B (a value of 2.3 to 3)
C=CC(=O)N1CC(COc2cc(-c3cc(F)c(O)c(F)c3)cn3cncc23)C1 [Example 32] | A (a value of 3 or above)
C=CC(=O)N1CC(COc2cc(-c3ccc(O)cc3)cn3cnnc23)C1 [Example 5, 1-(3-(((6-(4-hydroxyphenyl)-[1,2,4]triazolo[4,3-a]pyridin-8-yl)oxy)methyl)azetidin-1-yl)prop-2-en-1-one] | A (a value of 3 or above)
C=CC(=O)N1[C@@H]2CC[C@H]1C[C@H](Oc1cc(-c3cc(F)c(O)cc3CC)cn3cncc13)C2 [Example 48] | A (a value of 3 or above)
C=CC(=O)N1CC(COc2cc(-c3ccc(O)c(F)c3)cn3cncc23)C1 [Example 20] | A (a value of 3 or above)
C=CC(=O)N1CC2(CC(Oc3cc(-c4ccc(O)cc4)cn4cncc34)C2)C1 [Example 37] | A (a value of 3 or above)
C=CC(=O)N1CCC[C@H](Oc2cc(-c3ccc(O)cc3)cn3cncc23)C1 [Example 27] | A (a value of 3 or above)
C=CC(=O)N1CC2(CCC2Oc2cc(-c3ccc(O)cc3)cn3cncc23)C1 (stereo not shown) [Example 3, 1-(5-((6-(4-hydroxyphenyl)imidazo[1,5-a]pyridin-8-yl)oxy)-2-azaspiro[3.3]heptan-2-yl)prop-2-en-1-one] | A (a value of 3 or above)
C=CC(=O)N1CC(CNc2cc(-c3ccc(O)cc3)cn3cncc23)C1 [Example 52] | B (a value of 2.3 to 3)
C=CC(=O)N1CC(COc2cc(-c3ccc(O)cc3C)cn3cncc23)C1 [Example 44] | A (a value of 3 or above)
C=CC(=O)N1CCC[C@H](Nc2cc(-c3ccc(O)cc3)cn3cncc23)C1 [Example 51] | B (a value of 2.3 to 3)
C=CC(=O)N1CC[C@H](Oc2cc(-c3ccc(O)cc3)cn3cncc23)C1 [Example 1, (S)-1-(3-((6-(4-hydroxyphenyl)imidazo[1,5-a]pyridin-8-yl)oxy)pyrrolidin-1-yl)prop-2-en-1-one] | A (a value of 3 or above)
CN(C)C/C=C/C(=O)N1CC(COc2cc(-c3ccc(O)c(F)c3)cn3cncc23)C1 [Example 22] | A (a value of 3 or above)
C=CC(=O)N1[C@H](C)C[C@H](Oc2cc(-c3ccc(O)cc3)cn3cncc23)C[C@@H]1C [Example 40] | B (a value of 2.3 to 3)
C=CC(=O)N1CCC[C@H](Oc2cc(-c3cc(F)c(O)cc3CC)cn3cncc23)C1 [Example 16] | B (a value of 2.3 to 3)
C=CC(=O)N1[C@@H]2CC[C@H]1C[C@@H](Oc1cc(-c3ccc(O)cc3)cn3cncc13)C2 [Example 36] | A (a value of 3 or above)
C=CC(=O)N1CC(CSc2cc(-c3ccc(O)cc3)cn3cncc23)C1 [Example 29] | A (a value of 3 or above)
C=CC(=O)N1CCC(Oc2cc(-c3cc(F)c(O)cc3CC)cn3cncc23)C(F)(F)C1 (stereo not shown) [Example 49] | C (a value of 1.8 to 2.3)

Compound | JAK3 (pKi)-JAK1 (pKi)
C=CC(=O)N1CC[C@@H](Oc2cc(-c3ccc(O)cc3)cn3cncc23)C[C@@H]1C [Example 39] | A (a value of 3 or above)
CCc1cc(O)ccc1-c1cc(OCC2CN(C(=O)/C=C/CN(C)C)C2)c2cncn2c1 [Example 25] | A (a value of 3 or above)
C=CC(=O)N1CC[C@H](Oc2cc(-c3ccc(O)cc3)cn3cncc23)C[C@@H]1C [Example 38] | A (a value of 3 or above)
C=CC(=O)N1CC(COc2cc(-c3cc(C)c(O)cc3C)cn3cncc23)C1 [Example 43] | A (a value of 3 or above)
C=CC(=O)N1CC[C@@H](Oc2cc(-c3ccc(O)cc3)cn3cncc23)[C@@H](C)C1 [Example 41] | A (a value of 3 or above)
C=CC(=O)N1CCC(Oc2cc(-c3ccc(O)cc3)cn3cncc23)CC1 [Example 30] | A (a value of 3 or above)
CN(C)C/C=C/C(=O)N1CC(COc2cc(-c3ccc(O)c(Cl)c3)cn3cncc23)C1 [Example 23] | A (a value of 3 or above)
C=CC(=O)N1CC(COc2nc(-c3ccc(O)cc3)cn3cncc23)C1 [Example 6, 1-(3-(((6-(4-hydroxyphenyl)imidazo[1,5-a]pyrazin-8-yl)oxy)methyl)azetidin-1-yl)prop-2-en-1-one] | A (a value of 3 or above)
C=CC(=O)N1CCC(Nc2cc(-c3ccc(O)cc3)cn3cncc23)CC1 [Example 4, 1-(4-((6-(4-hydroxyphenyl)imidazo[1,5-a]pyridin-8-yl)amino)piperidin-1-yl)prop-2-en-1-one] | B (a value of 2.3 to 3)
C=CC(=O)N1CC(COc2cc(-c3ccc(O)cc3CC)cn3cncc23)C1 [Example 21] | A (a value of 3 or above)
C=CC(=O)N1CCC(Oc2cc(-c3cc(F)c(O)cc3CC)cn3cncc23)CC1 [Example 47] | B (a value of 2.3 to 3)
C=CC(=O)N1CC[C@H](COc2cc(-c3ccc(O)cc3)cn3cncc23)C1 [Example 26] | A (a value of 3 or above)
C=CC(=O)N1CC(COc2cc(-c3ccc(O)cc3OC)cn3cncc23)C1 [Example 45] | A (a value of 3 or above)
C=CC(=O)N1[C@@H]2CC[C@H]1C[C@H](Nc1cc(-c3ccc(O)cc3)cn3cncc13)C2 [Example 50] | B (a value of 2.3 to 3)
C=CC(=O)N1CC(COc2cc(-c3cc(Cl)c(O)c(Cl)c3)cn3cncc23)C1 [Example 33] | A (a value of 3 or above)
C=CC(=O)N1CC(COc2cc(-c3ccc(O)cc3C(F)(F)F)cn3cncc23)C1 [Example 42] | A (a value of 3 or above)
CCc1cc(O)c(F)cc1-c1cc(O[C@H]2CCCN(C(=O)/C=C/CN(C)C)C2)c2cncn2c1 [Example 18] | B (a value of 2.3 to 3)
C=CC(=O)N1CCC(COc2cc(-c3ccc(O)cc3)cn3cncc23)CC1 [Example 2, 1-(4-(((6-(4-hydroxyphenyl)imidazo[1,5-a]pyridin-8-yl)oxy)methyl)piperidin-1-yl)prop-2-en-1-one] | A (a value of 3 or above)
C=CC(=O)N1CCC(Oc2cc(-c3ccc(O)cc3)cn3cncc23)C(F)(F)C1 (stereo not shown) [Example 14, 1-(3,3-difluoro-4-((6-(4-hydroxyphenyl)imidazo[1,5-a]pyridin-8-yl)oxy)piperidin-1-yl)prop-2-en-1-one] | A (a value of 3 or above)
